The test system of assay [1] is picornaviruses (CVB1, HRV-A2, HRV-A23, EV-68). The assay can be described thus: Anti-picornavirus cytopathic effect (CPE) reduction assay on HeLa H1 cells. Format: cell-based. The conditions noted are these: Enterovirus B, HeLa H1, 48 h, HeLa H1 cells, 48 h, category from averaging the EC50 values from four picornaviruses (CVB1, HRV-A2, HRV-A23, EV68); read-out: EC50 values of the compounds determined in the anti-picornavirus assay. The method, boiled down:
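Cytopathic-effect protection: EC50 from non-linear regression of cell viability (CellTiterBlue, 560/590 nm) 48 h post-infection, scaled between infected and mock-infected vehicle wells. Compound dilutions added to HeLa H1 cells 2 h before virus (MOI causing complete CPE within 2 days), in DMEM + 2% FBS; categories average the four viruses.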

In a further assay the target is T1, PLA2G16 (Homo sapiens, UniProt P53816).
T1 construct: Hexa-His (N); made in house; host or cells: E. coli BL21(DE3)
T1 sequence (P53816 1-162): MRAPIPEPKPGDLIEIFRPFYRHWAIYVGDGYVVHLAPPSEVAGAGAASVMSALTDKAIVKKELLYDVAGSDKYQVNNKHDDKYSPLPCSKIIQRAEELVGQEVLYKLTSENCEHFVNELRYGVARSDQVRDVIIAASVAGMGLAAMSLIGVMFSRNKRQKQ
The experiment in a line: Enzyme activity assay for PLA2G16 (Red/Green BODIPY PC-A2 fluorescence). Particulars: His-tagged PLA2G16, 4 min pre-incubation, 2 nM to 50 μM; read-out: IC50 values of the compounds determined in the enzyme activity assay for PLA2G16. Format: biochemical. The method, boiled down: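 IC50 from non-linear fits of fluorescence rise (480/530 nm, 10 min) after adding Red/Green BODIPY PC-A2 mixed with DOPC/DOPG/cholesterol liposomes. Recombinant His-tagged human enzyme, bacterially expressed, was first exposed to inhibitor (2 nM–50 μM final) for 4 min in 50 mM Tris pH 8.5, 100 mM NaCl, 5 mM glutathione.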

Regarding `Cc1ccccc1C(=O)N[C@@H](C)C(=O)C(=O)NCC1CC1` (single isomer, unassigned) [FP 157], the 50% effective concentration (EC50) – broadly, the concentration needed to bring the measured effect to its halfway point – in assay [1] lay in the range of 1000 to 10000 nM. Besides, at PLA2G16, the IC50 (in general, the point on the concentration scale where inhibition reaches its midpoint) was under 1000 nM.
Taken in the same sequence, the figures for `CC(C(=O)C(=O)NCC(F)F)N(C=O)C1CCCCC1` (centres unmarked) [FP 111, 3-(N-Cyclohexylformamido)-N-(2,2-difluoroethyl)-2-oxobutanamide] were over 10000 nM and under 1000 nM.
Taken in the same sequence, the figures for `O=C(NCC1CCCCC1)C(=O)C1CCC(=O)N1Cc1nccs1` (centres unmarked) [FP 311] were under 1000 nM and under 1000 nM.
Taken in the same sequence, the figures for `CCCC(NS(=O)(=O)c1ccccc1)C(=O)C(=O)NCC1CC1` (centres unmarked) [FP 217, 3-Benzenesulfonamido-N-(cyclopropylmethyl)-2-oxohexanamide] were 1000 to 10000 nM and under 1000 nM.
For the molecule `CC(C(=O)C(=O)NCCOc1ccccc1)N(C=O)C1CCCCC1` (centres unmarked) [FP 109, 3-(N-Cyclohexylformamido)-2-oxo-N-(2-phenoxyethyl)butanamide], the concentration giving a half-maximal response (EC50) in assay [1] is under 1000 nM. Besides, the IC50 at PLA2G16 is under 1000 nM.
With `CC(C(=O)C(=O)NCC1CC1)N(C=O)CC1CCN(C(=O)C2CCCCC2)CC1` (centres unmarked) [FP 81, 3-{N-[(1-Cyclohexanecarbonylpiperidin-4-yl)methyl]formamido}-N-(cyclopropylmethyl)-2-oxobutanamide], the 50% effective concentration (EC50) in assay [1] was over 10000 nM. Besides, the IC50 on PLA2G16 was 1000 to 10000 nM.
Taken in the same sequence, the figures for `CC(C(=O)C(=O)NC1CC1)N(C=O)Cc1ccccc1` (centres unmarked) [FP 44, 3-(N-Benzylformamido)-N-cyclopropyl-2-oxobutanamide] were 1000 to 10000 nM and under 1000 nM.
Taken in the same sequence, the figures for `CC1(NC(=O)C(=O)C2CCC(=O)N2Cc2ccccc2)CC1` (centres unmarked) [FP 246, 2-(1-Benzyl-5-oxopyrrolidin-2-yl)-N-(1-methylcyclopropyl)-2-oxoacetamide] were 1000 to 10000 nM and under 1000 nM.
Taken in the same sequence, the figures for `N#CC1CC(NC(=O)C(=O)[C@H]2CCC(=O)N2Cc2ccccc2)C1` (stereo partly drawn) [FP 303, 2-[(2R)-1-Benzyl-5-oxopyrrolidin-2-yl]-N-(3-cyanocyclobutyl)-2-oxoacetamide] were 1000 to 10000 nM and under 1000 nM.
For `CCC(NS(=O)(=O)c1ccccc1)C(=O)C(=O)NCC1CC1` (centres unmarked) [FP 216, 3-Benzenesulfonamido-N-(cyclopropylmethyl)-2-oxopentanamide], the EC50 in assay [1] is 1000 to 10000 nM. Moreover, the IC50 on PLA2G16 was under 1000 nM.
Taken in the same sequence, the figures for `CC(C)C(=O)N(C)CCNC(=O)C(=O)[C@H]1CCC(=O)N1Cc1ccccc1` [FP 333, N-(2-{2-[(2R)-1-Benzyl-5-oxopyrrolidin-2-yl]-2-oxoacetamido}ethyl)-N,2-dimethyl-propanamide] were 1000 to 10000 nM and under 1000 nM.
Taken in the same sequence, the figures for `CC(C(=O)C(=O)NCCOc1ccc(C(N)=O)cc1)N(C=O)C1CCCCC1` (centres unmarked) [FP 114, 4-{2-[3-(N-Cyclohexylformamido)-2-oxobutanamido]ethoxy}benzamide] were over 10000 nM and under 1000 nM.
Taken in the same sequence, the figures for `O=C(NCc1ncccn1)C(=O)[C@H]1CCC(=O)N1Cc1ccccc1` [FP 298, 2-[(2R)-1-Benzyl-5-oxopyrrolidin-2-yl]-2-oxo-N-[(pyrimidin-2-yl)methyl]acetamide] were 1000 to 10000 nM and under 1000 nM.
As to `CC(OC1CCCCC1)C(=O)C(=O)NCC1CCC1` (centres unmarked) [FP 126, N-(Cyclobutylmethyl)-3-(cyclohexyloxy)-2-oxobutanamide], in assay [1], the EC50 is under 1000 nM. Besides, on PLA2G16, the IC50 is under 1000 nM.
Consider `C[C@H](CO)NC(=O)C(=O)C1CCC(=O)N1Cc1ccc(Cl)cc1` (stereo partly drawn) [FP 258, 2-{1-[(4-Chlorophenyl)methyl]-5-oxopyrrolidin-2-yl}-N-[(2R)-1-hydroxypropan-2-yl]-2-oxoacetamide], for which, in assay [1], the concentration giving a half-maximal response (EC50) was 1000 to 10000 nM. In addition, the IC50 on PLA2G16 was in the range of 1000 to 10000 nM.
`CCC(NC(=O)c1cccnc1)C(=O)C(=O)NCC1CCCCC1` (centres unmarked) [FP 210, N-(Cyclohexylmethyl)-2-oxo-3-[(pyridin-3-yl)formamido]pentanamide]: in assay [1], the half-maximal effective concentration (EC50) fell in the range of 1000 to 10000 nM. Further, on PLA2G16, the half-inhibitory concentration (IC50) is under 1000 nM.

The values are drawn from patent publication US11091428B2 (HAPLOGEN GMBH, priority 2016, dated 2021).
